Patent publication US20230192705A1, “SHP2 INHIBITORS, COMPOSITIONS AND USES THEREOF” (Betta Pharmaceuticals Co., Ltd, priority 2020, published 2023)
Where two headings read alike, the source gives them in different places.

Legend:
hERG channel = target: T1, hERG channel (Homo sapiens, UniProt Q12809); assay: Patch clamp assay to test the effect of compound on hERG channel; assay type: cell-based; conditions: manual patch clamp, HEK 293 cells expressed with hERG, concentration for half maximum effect
T1 construct: expressed in transfected cells; host or cells: HEK-293
T1 sequence (Q12809 whole entry): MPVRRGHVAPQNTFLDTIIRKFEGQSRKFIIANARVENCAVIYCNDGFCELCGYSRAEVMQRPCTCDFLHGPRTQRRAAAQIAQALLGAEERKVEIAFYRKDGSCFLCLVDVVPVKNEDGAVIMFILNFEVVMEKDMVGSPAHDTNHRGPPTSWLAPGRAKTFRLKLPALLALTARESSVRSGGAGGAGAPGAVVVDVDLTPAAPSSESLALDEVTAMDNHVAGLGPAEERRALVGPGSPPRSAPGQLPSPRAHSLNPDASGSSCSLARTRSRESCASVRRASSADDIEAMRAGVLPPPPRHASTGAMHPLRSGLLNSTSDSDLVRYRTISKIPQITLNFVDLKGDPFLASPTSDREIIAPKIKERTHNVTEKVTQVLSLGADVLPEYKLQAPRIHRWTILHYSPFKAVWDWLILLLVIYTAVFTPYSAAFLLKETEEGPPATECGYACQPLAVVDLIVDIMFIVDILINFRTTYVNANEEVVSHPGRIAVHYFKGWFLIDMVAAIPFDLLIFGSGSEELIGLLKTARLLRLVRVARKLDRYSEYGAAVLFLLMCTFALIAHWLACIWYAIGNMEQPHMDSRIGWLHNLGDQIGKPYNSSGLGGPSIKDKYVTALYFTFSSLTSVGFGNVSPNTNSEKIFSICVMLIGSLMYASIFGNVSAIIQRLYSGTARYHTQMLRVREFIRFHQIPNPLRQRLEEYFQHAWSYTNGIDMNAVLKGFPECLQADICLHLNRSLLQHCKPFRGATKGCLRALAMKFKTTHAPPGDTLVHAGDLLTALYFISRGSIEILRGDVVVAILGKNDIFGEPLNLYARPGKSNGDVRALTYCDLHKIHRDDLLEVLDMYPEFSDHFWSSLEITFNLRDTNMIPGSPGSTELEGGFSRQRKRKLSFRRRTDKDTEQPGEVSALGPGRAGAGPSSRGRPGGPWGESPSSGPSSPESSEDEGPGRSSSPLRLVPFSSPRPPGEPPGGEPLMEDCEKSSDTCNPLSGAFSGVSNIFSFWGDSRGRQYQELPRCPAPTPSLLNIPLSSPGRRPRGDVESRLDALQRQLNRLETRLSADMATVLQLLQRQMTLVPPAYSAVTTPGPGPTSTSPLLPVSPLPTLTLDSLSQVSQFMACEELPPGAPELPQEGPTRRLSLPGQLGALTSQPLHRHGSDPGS
In short: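 Whole-cell patch clamp on hERG-expressing HEK-293 cells at 22-23 °C, perfused with 4-6 escalating concentrations (0.3-30 μM final) after a 2 min vehicle period. Tail currents elicited by 2 s depolarizing steps from −80 mV, measured at a −50 mV repolarization; fraction of control current fitted by Hill equation for half-maximal concentration.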

leukemia MV-4-11 cell = assay: Cell proliferation assay (CellTiter-Glo), MV-4-11; assay type: cell-based; conditions: Homo sapiens, MV4-11, MV-4-11, 120 hrs, CTG, read-out: Compound on MV-4-11 cell IC50

IC50 (leukemia MV-4-11 cell; class symbols) [nM]	IC50 (leukemia MV-4-11 cell; numeric values) [nM]	SMILES	IC50 (hERG channel) [nM]
≤ 20		N[C@@H]1c2ccccc2CC12CCN(c1nc3[nH]nc(C4(c5ccccc5)CC4(F)F)c3c(=O)[nH]1)CC2 (stereo partly drawn) [Example 9, 6-((S)-1-amino-1,3-dihydrospiro[indene-2,4′-piperidin]-1′-yl)-3-(2,2-difluoro-1-phenylcyclopropyl)-1,5-dihydro-4H-pyrazolo[3,4-d]pyrimidin-4-one]	10400
20 to 60		N[C@@H]1c2ccccc2CC12CCN(c1nc3[nH]nc(C4(c5ccccc5)COC4)c3c(=O)[nH]1)CC2 [Example 96, (S)-6-(1-amino-1,3-dihydrospiro[indene-2,4′-piperidin]-1′-yl)-3-(3-phenyloxetan-3-yl)-1,5-dihydro-4H-pyrazolo[3,4-d]pyrimidin-4-one]	> 30000
20 to 60		N[C@@H]1c2ccccc2CC12CCN(c1nc3[nH]nc(C4(c5ccc(C(F)(F)F)cc5)CC4)c3c(=O)[nH]1)CC2 [Example 228, (S)-6-(1-amino-1,3-dihydrospiro[indene-2,4′-piperidin]-1′-yl)-3-(1-(4-(trifluoromethyl)phenyl)cyclo-propyl)-1,5-dihydro-4H-pyrazolo[3,4-d]pyrimidin-4-one]	
≤ 20		Cn1c(N2CCC3(CC2)Cc2ccccc2[C@H]3N)nc2[nH]nc(C3(c4ccccc4)CC3)c2c1=O [Example 1]	1760
≤ 20		N#Cc1ccc(C2(c3n[nH]c4nc(N5CCC6(CC5)Cc5ccccc5[C@H]6N)[nH]c(=O)c34)CC2)cc1 [Example 237, (S)-4-(1-(6-(1-amino-1,3-dihydrospiro[indene-2,4′-piperidin]-1′-yl)-4-oxo-4,5-dihydro-1H-pyrazolo[3,4-d]pyrimidin-3-yl)cyclopropyl)benzonitrile]	7900
≤ 20		N[C@@H]1c2ccccc2CC12CCN(c1nc3[nH]nc(C4(c5csnn5)CC4)c3c(=O)[nH]1)CC2 [Example 240, (S)-3-(1-(1,2,3-thiadiazol-4-yl)cyclopropyl)-6-(1-amino-1,3-dihydrospiro[indene-2,4′-piperidin]-1′-yl)-1,5-dihydro-4H-pyrazolo[3,4-d]pyrimidin-4-one]	17100
	6.1	N[C@@H]1c2ccccc2CC12CCN(c1nc3[nH]nc(C4(c5cccc(C(F)(F)F)c5)CC4)c3c(=O)[nH]1)CC2 [Example 8, (S)-6-(1-amino-1,3-dihydrospiro[indene-2,4′-piperidin]-1′-yl)-3-(1-(3-(trifluoromethyl)plienyl)cyclo-propyl)-1,5-dihydro-4H-pyrazolo[3,4-d]pyrimidin-4-one]	
≤ 20		N[C@@H]1c2ccccc2CC12CCN(c1nc3[nH]nc(C4(c5ccc(Cl)c(Cl)c5)CC4)c3c(=O)[nH]1)CC2 [Example 21, (S)-6-(1-amino-1,3-dihydrospiro[indene-2,4′-piperidin]-1′-yl)-3-(1-(3,4-dichlorophenyl)cyclopropyl)-1,5-dihydro-4H-pyrazolo[3,4-d]pyrimidin-4-one]	
		Nc1ccc(C2(c3n[nH]c4nc(N5CCC6(CC5)Cc5ccccc5[C@H]6N)[nH]c(=O)c34)CC2)cc1 [Example 230, (S)-6-(1-amino-1,3-dihydrospiro[indene-2,4′-piperidin]-1′-yl)-3-(1-(4-aminophenyl)cyclopropyl)-1,5-dihydro-4H-pyrazolo[3,4-d]pyrimidin-4-one]	> 30000
≤ 20		N[C@@H]1c2ccccc2CC12CCN(c1nc3[nH]nc(C4(c5ccccc5)CC4)c3c(=O)[nH]1)CC2 [Example 33]	9500
≤ 20		N[C@@H]1c2ccccc2CC12CCN(c1nc3[nH]nc(C4(c5ccc6c(c5)OC(F)(F)O6)CC4)c3c(=O)[nH]1)CC2 [Example 13, (S)-6-(1-amino-1,3-dihydrospiro[indene-2,4′-piperidin]-1′-yl)-3-(1-(2,2-difluorobenzo[d][1,3]dioxol-5-yl)cyclopropyl)-1,5-dihydro-4H-pyrazolo[3,4-d]pyrimidin-4-one]	
≤ 20		N[C@@H]1c2ccccc2CC12CCN(c1nc3[nH]nc(C4(c5ccc6c(c5)OCO6)CC4)c3c(=O)[nH]1)CC2 [Example 34, (S)-6-(1-amino-1,3-dihydrospiro[indene-2,4′-piperidin]-1′-yl)-3-(1-(benzo[d][1,3]dioxol-5-yl)cyclopropyl)-1,5-dihydro-4H-pyrazolo[3,4-d]pyrimidin-4-one]	6900
	1.2	N[C@@H]1c2ccccc2CC12CCN(c1nc3[nH]nc(C4(c5ccc(F)cc5)CC4)c3c(=O)[nH]1)CC2 [Example 11, (S)-6-(1-amino-1,3-dihydrospiro[indene-2,4′-piperidin]-1′-yl)-3-(1-(4-fluorophenyl)cyclopropyl)-1,5-dihydro-4H-pyrazolo[3,4-d]pyrimidin-4-one]	
≤ 20		N[C@@H]1c2ccccc2CC12CCN(c1nc3[nH]nc(C4(c5cccs5)CC4)c3c(=O)[nH]1)CC2 [Example 24, (S)-6-(1-amino-1,3-dihydrospiro[indene-2,4′-piperidin]-1′-yl)-3-(1-(thiophen-2-yl)cyclopropyl)-1,5-dihydro-4H-pyrazolo[3,4-d]pyrimidin-4-one]	14800
	6.5	N[C@@H]1c2ccccc2CC12CCN(c1nc3[nH]nc(C4(c5cccc(F)c5)CC4)c3c(=O)[nH]1)CC2 [Example 6, (S)-6-(1-amino-1,3-dihydrospiro[indene-2,4′-piperidin]-1′-yl)-3-(1-(3-fluorophenyl)cyclopropyl)-1,5-dihydro-4H-pyrazolo[3,4-d]pyrimidin-4-one]	
		N[C@@H]1c2ccccc2CC12CCN(c1nc3[nH]nc(C4(c5ccc(O)cc5)CC4)c3c(=O)[nH]1)CC2 [Example 234, (S)-6-(1-amino-1,3-dihydrospiro[indene-2,4′-piperidin]-1′-yl)-3-(1-(4-hydroxyphenyl)cyclopropyl)-1,5-dihydro-4H-pyrazolo[3,4-d]pyrimidin-4-one]	> 30000
